Test results from PMC7321065, “Discovery of New Schiff Bases Tethered Pyrazole Moiety: Design, Synthesis, Biological Evaluation, and Molecular Docking Study as Dual Targeting DHFR/DNA Gyrase Inhibitors with Immunomodulatory Activity” (Molecules, 2020).

Assays:
Salmonella typhi = experiment: Inhibition zone, agar plate diffusion; format: cell-based; conditions: Salmonella enterica, St, mm ± standard deviation, sample at 0.5 mg/mL, read-out: Inhibition zone (IZ)
Description: (§1) Antimicrobial activities of the newly formed Schiff bases (6a–d, 7a–d, 8a–d, and 9a–d) and reference drugs were evaluated against three Gram-positive, three Gram-negative, and two fungi strain at Al-Azhar University, Cairo, Egypt. The inhibition zones (IZ, in mm ± standard deviation) and the minimal inhibitory concentration (MIC) (μg/mL) were determined by the conventional paper disk diffusion method.
(§2) In Vitro Antimicrobial Activities
(§3) The antimicrobial activities inhibition zone (IZ, mm±standard deviation) of pyrazole Schiff bases ( 6a-d , 7a-d, 8a-d and 9a-d ) was measurement according to the agar plate diffusion method. Briefly, 100 µl of the […]
(§4) […] of each sample (at 0.5 mg/mL) was added to each well (10 mm diameter holes cut in the agar gel). The plates were incubated for 24 h at 37 °C (for bacteria and yeast) and for 72 h at 27 °C (for filamentous fungi), each test was repeated three times. After incubation, the microorganism's growth was observed. […]
(§5) drugs while Amphotericin B was used as standard antifungal drug. The resulting inhibition zone diameters were measured in millimeters and used as criterion for the antimicrobial activity. Solvent controls (DMSO) were included in every experiment as negative controls. DMSO was used for dissolving […]
(§6) the tested microorganisms. […]
(§7) Bacteria were grown on nutrient agar medium, while fungi and yeast were grown on Sabouraud agar medium. […]

Candida albicans = experiment: Inhibition zone, agar plate diffusion; format: cell-based; conditions: Ca, mm ± standard deviation, sample at 0.5 mg/mL, read-out: Inhibition zone (IZ)
Description: as §1, §2, §3, §4, §5, §6, §7

Staphylococcus aureus = experiment: Inhibition zone, agar plate diffusion; format: cell-based; conditions: Sa, mm ± standard deviation, sample at 0.5 mg/mL, read-out: Inhibition zone (IZ)
Description: as §1, §2, §3, §4, §5, §6, §7

Fusarium oxysporum = experiment: Inhibition zone, agar plate diffusion; format: cell-based; conditions: Fo, mm ± standard deviation, sample at 0.5 mg/mL, read-out: Inhibition zone (IZ)
Description: as §1, §2, §3, §4, §5, §6, §7

Escherichia coli = experiment: Inhibition zone, agar plate diffusion; format: cell-based; conditions: Ec, mm ± standard deviation, sample at 0.5 mg/mL, read-out: Inhibition zone (IZ)
Description: as §1, §2, §3, §4, §5, §6

Bacillus subtilis = experiment: Inhibition zone, agar plate diffusion; format: cell-based; conditions: Bs, mm ± standard deviation, sample at 0.5 mg/mL, read-out: Inhibition zone (IZ)
Description: as §1, §2, §3, §4, §5, §6

Enterococcus faecalis = experiment: Inhibition zone, agar plate diffusion; format: cell-based; conditions: Ef, mm ± standard deviation, sample at 0.5 mg/mL, read-out: Inhibition zone (IZ)
Description: as §1, §2, §3, §4, §5, §6

Pseudomonas aeruginosa = experiment: Inhibition zone, agar plate diffusion; format: cell-based; conditions: Pa, mm ± standard deviation, sample at 0.5 mg/mL, read-out: Inhibition zone (IZ)
Description: as §1, §2, §3, §4, §5, §6

Row | SMILES | melting point [°C] | zone of inhibition at 500 µg/mL (Salmonella typhi) [mm] | zone of inhibition at 500 µg/mL (Candida albicans) [mm] | zone of inhibition at 500 µg/mL (Staphylococcus aureus) [mm] | zone of inhibition at 500 µg/mL (Fusarium oxysporum) [mm] | zone of inhibition at 500 µg/mL (Escherichia coli) [mm] | zone of inhibition at 500 µg/mL (Bacillus subtilis) [mm] | zone of inhibition at 500 µg/mL (Enterococcus faecalis) [mm] | zone of inhibition at 500 µg/mL (Pseudomonas aeruginosa) [mm]
1 | COc1ccc(Nc2n[nH]c(N=Cc3c(C)nn(-c4ccccc4)c3Cl)c2C(N)=O)cc1 [7a, 5-((5-Chloro-3-methyl-1-phenyl-1H-pyrazol-4-yl)methyleneamino)-3-(p-methoxyphenylamino)-1H-pyrazole-4-carboxamide] | 270 to 272 | 18 ± 0.16 | 13 ± 0.35 | 19 ± 0.31 | 15 ± 0.3 | 18 ± 0.2 | 20 ± 0.4 | 21 ± 0.11 | 20 ± 0.15
2 | COc1ccc(Nc2n[nH]c(N=Cc3cc(OC)c(OC)c(OC)c3)c2C(N)=O)cc1 [9a, 3-(p-Methoxyphenylamino)-5-(3,4,5-trimethoxybenzylideneamino)-1H-pyrazole-4-carboxamide] | 222 to 224 | 20 ± 0.33 | 22 ± 0.19 | 21 ± 0.17 | 19 ± 0.55 | 22 ± 0.18 | 25 ± 0.21 | 19 ± 0.14 | 17 ± 0.2
3 | COc1ccc(Nc2n[nH]c(N=Cc3cc(OC)c(OC)c(OC)c3)c2C(=O)Nc2ccc(Cl)cc2)cc1 [9d, N-(p-Chlorophenyl)-3-(p-methoxyphenylamino)-5-(3,4,5-trimethoxybenzylideneamino)-1H-pyrazole-4-carboxamide] | 213 to 215 | 12 ± 0.61 | 18 ± 0.2 | 16 ± 0.54 | 14 ± 0.38 | 15 ± 0.96 | 18 ± 0.12 | < 8 | < 8
